Legend:
Assay in all cases: relative viability (nuclei count vs DMSO), 5 days (fraction); higher = more cells survive
Irinotecan + AZD7762 = compound: CCc1c2c(nc3ccc(OC(=O)N4CCC(N5CCCCC5)CC4)cc13)-c1cc3c(c(=O)n1C2)COC(=O)[C@]3(O)CC [Irinotecan] + NC(=O)Nc1cc(-c2cccc(F)c2)sc1C(=O)N[C@H]1CCCNC1 [AZD7762] (partner 0.2 µM)
Outline: (§1)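 Each reported value is a median over duplicate plates. It expresses relative viability: treated-well nuclei count divided by vehicle-well nuclei count. Lung cancer cell lines in 1536-well plates were dosed by pin tool a day after seeding, alone with one drug or with a fixed anchor-drug dose plus five library-drug doses (not always all listed) in √10 steps, and nuclei were counted after 5 days.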

MK-8033 + Dasatinib = compound: Cn1cc(-c2cnc3ccc4ccc(CS(=O)(=O)NCc5ccccn5)cc4c(=O)c3c2)cn1 [MK-8033] + Cc1nc(Nc2ncc(C(=O)Nc3c(C)cccc3Cl)s2)cc(N2CCN(CCO)CC2)n1 [Dasatinib] (partner 0.075 µM)
Outline: as §1

MK-8033 + Foretinib = compound: Cn1cc(-c2cnc3ccc4ccc(CS(=O)(=O)NCc5ccccn5)cc4c(=O)c3c2)cn1 [MK-8033] + COc1cc2c(Oc3ccc(NC(=O)C4(C(=O)Nc5ccc(F)cc5)CC4)cc3F)ccnc2cc1OCCCN1CCOCC1 [Foretinib] (partner 0.25 µM)
Outline: as §1

RU-SKI 43 + Pemetrexed = compound: CC[C@@H](C)CNCC(=O)N1CCC2=C([C@@H]1COC3=CC=CC(=C3)C)C=CS2 [RU-SKI 43] + Nc1nc2[nH]cc(CCc3ccc(C(=O)N[C@@H](CCC(=O)O)C(=O)O)cc3)c2c(=O)[nH]1 [Pemetrexed] (partner 0.2 µM)
Outline: as §1

Cell Line | relative viability (Irinotecan + AZD7762; first compound 0.6325 µM) | relative viability (Irinotecan + AZD7762; first compound 2 µM) | relative viability (Irinotecan + AZD7762; first compound 6.325 µM) | relative viability (Irinotecan + AZD7762; first compound 20 µM) | relative viability (MK-8033 + Dasatinib; first compound 0.02 µM) | relative viability (MK-8033 + Dasatinib; first compound 0.06325 µM) | relative viability (MK-8033 + Dasatinib; first compound 0.2 µM) | relative viability (MK-8033 + Dasatinib; first compound 0.6325 µM) | relative viability (MK-8033 + Dasatinib; first compound 2 µM) | relative viability (MK-8033 + Foretinib; first compound 0.02 µM) | relative viability (MK-8033 + Foretinib; first compound 0.06325 µM) | relative viability (MK-8033 + Foretinib; first compound 0.2 µM) | relative viability (MK-8033 + Foretinib; first compound 0.6325 µM) | relative viability (MK-8033 + Foretinib; first compound 2 µM) | relative viability (RU-SKI 43 + Pemetrexed; first compound 0.1 µM) | relative viability (RU-SKI 43 + Pemetrexed; first compound 0.3162 µM) | relative viability (RU-SKI 43 + Pemetrexed; first compound 1 µM) | relative viability (RU-SKI 43 + Pemetrexed; first compound 3.162 µM) | relative viability (RU-SKI 43 + Pemetrexed; first compound 10 µM)
NCI-H2347 | 0.609 | 0.654 | 0.48 | 0.372 | 0.288 | 0.317 | 0.314 | 0.362 | 0.354 | 1.21 | 1.01 | 0.805 | 0.839 | 0.939 | 0.404 | 0.513 | 0.431 | 0.52 | 0.538
H3255 | 0.713 | 0.611 | 0.354 | 0.388 | 0.366 | 0.347 | 0.299 | 0.319 | 0.438 | 0.848 | 0.619 | 0.831 | 0.596 | 0.757 | 0.554 | 0.61 | 0.571 | 0.555 | 0.595
NCI-H460 |  | 0.202 | 0.0963 | 0.0901 | 0.481 | 0.409 | 0.48 | 0.501 | 0.484 | 1.02 | 0.961 | 0.947 | 1.02 | 1.01 | 0.0581 | 0.0578 | 0.0612 | 0.0618 | 0.0606
BEN | 0.55 | 0.677 | 0.447 | 0.472 | 0.343 | 0.289 | 0.318 | 0.326 | 0.307 | 0.642 | 0.541 | 0.527 | 0.606 | 0.646 | 0.941 | 0.682 | 0.997 | 0.665 | 0.825
NCI-H1993 |  | 0.681 | 0.508 | 0.603 | 0.482 | 0.493 | 0.533 | 0.468 | 0.502 | 0.696 | 0.774 | 0.789 | 0.73 | 0.949 | 0.59 | 0.625 | 0.558 | 0.624 | 0.465

From the supplement of paper PMC10307832
